According to patent publication US20130028838A1, “F18-TYROSINE DERIVATIVES FOR IMAGING BONE METASTASES” (PIRAMAL IMAGING SA, priority 2010, published 2013):
Where two headings read alike, the source gives them in different places.

Legend:
[1] = test system: 786-O/luc cells; assay: in vitro uptake of [F-18]-D-FMT into 786-O/luc cells; assay type: cell-based, human; details: after 30 min
[2] = test system: 786-O bone metastases; assay: PET/CT imaging in 786-O/luc bone metastasis mouse model; details: for accumulation in bone metastases / osteolytic lesions: [F-18]-fluoride day 51, [F-18]-D-FMT day 65
Method: 786-O/luc cells and the MDA-MB231SA/luc cells were harvested from subconfluent cell culture flasks and resuspended in PBS (Biochrom AG) to a final concentration of 5×10^5 cells/100 μl. For intracardiac inoculations, 5-week-old female athymic nude mice (Harlan-Winkelmann GmbH, Borchen, Germany) were anesthetized with an intraperitoneal injection of 5% Rompun (Bayer HealthCare AG, Leverkusen, Germany)/10% Ketavet (Pfizer, Karlsruhe, Germany) in 0.9% NaCl at a dose of 0.1 ml/10 g body weight. Using an insulin syringe (BD Micro-Fine+Demi U-100, Becton Dickinson GmbH, Heidelberg, Germany), 5×10^5 786-O/luc cells in 100 μl PBS were inoculated into the left cardiac ventricle (i.c.) of anesthetized mice. Experiments were approved by the governmental review committee on animal care.
10 to 12 MBq [F-18]-fluoride or [F-18]-D-FMT were injected i.v. into the tail vein. 60 min after injection anesthesia was induced by isoflurane/O2 and twenty-minute micro-PET/computed tomography (CT) scans were obtained using an Inveon micro PET/CT scanner (Siemens).
51 days after the inoculation of the 786-O/luc cells into the mice, PET/CT imaging was performed with [F-18]-fluoride (FIG. 1 right side). […] The same mouse was imaged 2 weeks later (day 65) with [F-18]-D-FMT (FIG. 1 left side).

[3] = test system: MDA-MB231SA bone metastases; assay: PET/CT imaging in MDA-MB231SA/luc bone metastasis mouse model; assay type: in vivo; details: PET/CT 25 days after inoculation
Description: To conclude, [F-18]-D-FMT is useful for the detection of bone metastases.

[4] = test system: inflammatory muscle tissue; details: cited from earlier work
[5] = in vivo; cited from earlier work

Row | Compound | uptake into the 786-O/luc cells [1] [% applied dose/10^6 cells] | uptake into regenerating and remineralizing bone / detection of osteoblastic activity [2] | uptake into the healthy bone ([2]; 60 min after i.v. injection) | accumulation in bone metastases / osteolytic lesions [2] | uptake into the bone metastases [3] | uptake in inflammatory muscle tissue ([4]; Turpentine-induced inflammation) | blood-borne tracer carried in red cells [5] | uptake in inflammatory muscle tissue ([4]; in vivo)
1 | N[C@H](Cc1ccc(OC[18F])cc1)C(=O)O [[F-18]-D-FMT, (R)-2-amino-3-(4[F-18]fluoromethoxy-phenyl)-propionic acid] | 12.8 | not detected | no uptake | accumulated in all bone metastases imaged by [F-18]-fluoride | showed uptake into the bone metastases | no uptake | – | –
2 | [18FH] [[F-18]-fluoride, reference compound] | – | unspecific uptake | – | high accumulation in multiple osteolytic lesions | – | – | approximately 30% | –
3 | 18F-fluorodeoxyglucose [FDG, reference compound] | – | – | – | – | – | – | – | taken up
